Results reported in patent publication US20100209489A1, “Formulations of desvenlafaxine” (Supernus Pharmaceuticals, Inc., priority 2009, published 2010).
Like-named read-outs stand apart in the source and are kept apart here.

Legend:
[1] = cited from earlier work
[2] = DI water, room temperature overnight
Procedure: All samples were prepared with DI water, pH 5.5. Controls were prepared similarly without the use of modulators. All test samples were mixed overnight at room temperature. The samples were then filtered and analyzed using HPLC-UV method.

**Q.** For `CN(C)CC(c1ccc(O)cc1)C1(O)CCCCC1` (racemic) [desvenlafaxine], which “adverse events and discontinuations” value ([1]; at higher doses (above 50 mg/day)) is on record?
**A.** The value was “more frequent”.

**Q.** And the “efficacy in clinical studies” value ([1]; dose of 50-400 mg/day)?
**A.** Its value is “effective”.

**Q.** What about the “additional benefit in clinical studies” value ([1]; doses higher than 50 mg/day) of the same molecule?
**A.** The value was “no additional benefit”.

**Q.** Which “API Solubility” value ([2]; control without modulators, sample pH 5.2-5.5) does the source give for `CN(C)CC(c1ccc(O)cc1)C1(O)CCCCC1.Cl.O` (single isomer, unassigned; (-)) [(−)-O-desmethyl venlafaxine HCl monohydrate] here?
**A.** The value was 611 mg/mL.

**Q.** What about the “API Solubility” value ([2]; with Alginic acid, sample pH 2.4-2.7) of the same molecule?
**A.** Its value is 568 mg/mL.

**Q.** And the “API Solubility” value ([2]; with Ascorbic acid, sample pH 2.7-3.0)?
**A.** The value was 597 mg/mL.

**Q.** What about the “API Solubility” value ([2]; with Beta cyclodextrin, sample pH 5.2-5.5) of the same molecule?
**A.** Its value is 502 mg/mL.

**Q.** What about the “API Solubility” value ([2]; with Carbopol 941, sample pH 3.2-3.5) of the same molecule?
**A.** Its value is 587 mg/mL.

**Q.** And the “API Solubility” value ([2]; with Citric acid, sample pH 2.1-2.4)?
**A.** The value was 612 mg/mL.

**Q.** And the “API Solubility” value ([2]; with Eudragit L100, sample pH 3.2-3.5)?
**A.** The value was 547 mg/mL.

**Q.** What about the “API Solubility” value ([2]; with Fumaric acid, sample pH <1.8) of the same molecule?
**A.** Its value is 639 mg/mL.

**Q.** And the “API Solubility” value ([2]; with Gelucire 44/14, sample pH 5.2-5.5)?
**A.** The value was 521 mg/mL.

**Q.** What about the “API Solubility” value ([2]; with HPMCP, sample pH 2.7-3.0) of the same molecule?
**A.** The value was 572 mg/mL.

**Q.** And the “API Solubility” value ([2]; with Hydroxypropyl beta cyclodextrin, sample pH 5.5-5.7)?
**A.** Its value is 589 mg/mL.

**Q.** And the “API Solubility” value ([2]; with Klucel LF, sample pH 5.5)?
**A.** Its value is 536 mg/mL.

**Q.** What about the “API Solubility” value ([2]; with Kollidone 25, sample pH 5.2-5.5) of the same molecule?
**A.** Its value is 610 mg/mL.

**Q.** What about the “API Solubility” value ([2]; with Kollidone/Tartaric acid, sample pH 2.1-2.4) of the same molecule?
**A.** Its value is 661 mg/mL.

**Q.** What about the “API Solubility” value ([2]; with Lactose, sample pH 5.2-5.5) of the same molecule?
**A.** Its value is 665 mg/mL.

**Q.** And the “API Solubility” value ([2]; with Malic acid, sample pH 1.5-2.0)?
**A.** Its value is 677 mg/mL.

**Q.** And the “API Solubility” value ([2]; with Maltrin M150/Xylitol/Sodium lauryl sulfate/Gelucire 44/14, sample pH 5.2-5.5)?
**A.** Its value is 432 mg/mL.

**Q.** And the “API Solubility” value ([2]; with Maltrin M150, sample pH 5.2-5.5)?
**A.** The value was 565 mg/mL.

**Q.** What about the “API Solubility” value ([2]; with Mannitol/Sorbitol/Tartaric acid/Eudragit L100, sample pH <1.8) of the same molecule?
**A.** The value was 521 mg/mL.

**Q.** And the “API Solubility” value ([2]; with Mannitol, sample pH 5.2-5.5)?
**A.** Its value is 613 mg/mL.

**Q.** And the “API Solubility” value ([2]; with Methocel E5, sample pH 5.7)?
**A.** The value was 504 mg/mL.

**Q.** What about the “API Solubility” value ([2]; with Methylcyclodextrin, sample pH 5.5) of the same molecule?
**A.** Its value is 561 mg/mL.

**Q.** And the “API Solubility” value ([2]; with PEG 3350, sample pH 5.2-5.5)?
**A.** The value was 602 mg/mL.

**Q.** And the “API Solubility” value ([2]; with PEG 8000, sample pH 5.2-5.5)?
**A.** Its value is 569 mg/mL.

**Q.** And the “API Solubility” value ([2]; with Poloxamer 188, sample pH 5.2-5.5)?
**A.** Its value is 552 mg/mL.

**Q.** What about the “API Solubility” value ([2]; with Sodium Docusate, sample pH 6.3-6.5) of the same molecule?
**A.** Its value is 539 mg/mL.

**Q.** What about the “API Solubility” value ([2]; with Sodium lauryl sulfate, sample pH 6.3-6.6) of the same molecule?
**A.** Its value is 524 mg/mL.

**Q.** And the “API Solubility” value ([2]; with Sorbitol, sample pH 5.2-5.5)?
**A.** Its value is 549 mg/mL.

**Q.** What about the “API Solubility” value ([2]; with Tartaric acid, sample pH 1.5-2.0) of the same molecule?
**A.** The value was 719 mg/mL.

**Q.** And the “API Solubility” value ([2]; with Triethyl citrate, sample pH 5.2-5.5)?
**A.** The value was 643 mg/mL.

**Q.** And the “API Solubility” value ([2]; with Tween 80, sample pH 5.2-5.5)?
**A.** Its value is 544 mg/mL.

**Q.** And the “API Solubility” value ([2]; with Vitamin E TPGS, sample pH 5.2-5.5)?
**A.** The value was 535 mg/mL.

**Q.** And the “API Solubility” value ([2]; with Xylitol, sample pH 5.2-5.5)?
**A.** Its value is 547 mg/mL.

**Q.** And the solubility (at about pH 6.0)?
**A.** The solubility was “less than 100 mg/mL”.

**Q.** And the solubility (higher pH, close to the physiological pH)?
**A.** The solubility was “less than 1 mg/mL”.

**Q.** What about the solubility (low pH, for example pH 1.0) of the same molecule?
**A.** The solubility was “a few hundred”.
